Measured values published in patent US11427548B2 (Arvinas Operations, Inc., priority 2015, dated 2022).
Where two headings read alike, the source gives them in different places.

Tests used:
Androgen Receptor [1] = molecular target: T1, Androgen Receptor (Homo sapiens, UniProt P10275); assay: Androgen Receptor ELISA assay (PathScan AR ELISA) in VCaP cells: AR degradation, Dmax and DC50; format: cell-based
T1 construct: endogenous in cells; host or cells: VCaP cells
T1 sequence (P10275 1-920): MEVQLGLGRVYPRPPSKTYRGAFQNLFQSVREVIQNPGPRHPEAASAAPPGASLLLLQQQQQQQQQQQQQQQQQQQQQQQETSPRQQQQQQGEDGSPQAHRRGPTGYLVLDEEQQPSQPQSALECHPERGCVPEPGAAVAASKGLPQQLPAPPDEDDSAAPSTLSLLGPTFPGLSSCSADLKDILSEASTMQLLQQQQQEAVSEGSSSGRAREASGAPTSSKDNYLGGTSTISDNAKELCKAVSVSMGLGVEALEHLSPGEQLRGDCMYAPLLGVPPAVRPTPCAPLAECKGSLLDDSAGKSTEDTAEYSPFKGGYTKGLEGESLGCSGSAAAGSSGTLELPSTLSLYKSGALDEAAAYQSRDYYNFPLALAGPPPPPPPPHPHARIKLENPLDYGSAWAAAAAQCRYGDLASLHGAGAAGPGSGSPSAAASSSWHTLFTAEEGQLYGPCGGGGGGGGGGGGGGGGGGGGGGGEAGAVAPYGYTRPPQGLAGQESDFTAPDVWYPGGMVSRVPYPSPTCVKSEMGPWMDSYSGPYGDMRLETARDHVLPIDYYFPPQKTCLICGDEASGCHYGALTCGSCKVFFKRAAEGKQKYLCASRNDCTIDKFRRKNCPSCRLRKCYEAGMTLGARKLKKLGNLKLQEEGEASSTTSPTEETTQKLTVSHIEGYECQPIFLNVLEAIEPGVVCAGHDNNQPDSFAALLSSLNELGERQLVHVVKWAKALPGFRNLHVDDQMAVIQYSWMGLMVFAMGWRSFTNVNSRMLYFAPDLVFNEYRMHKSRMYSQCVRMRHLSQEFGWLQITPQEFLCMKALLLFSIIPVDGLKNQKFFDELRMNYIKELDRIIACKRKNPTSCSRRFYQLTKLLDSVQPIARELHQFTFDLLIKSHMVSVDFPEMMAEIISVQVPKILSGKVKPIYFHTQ
How it was run: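 VCaP cells in phenol red-free RPMI with 5% charcoal-stripped FBS were grown at least 3 days, then given compound as 7 half-log doses in 0.1% DMSO with 0.1 nM R1881 for 24 h. Lysates went into a sandwich AR ELISA with TMB read at 450 nm.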

Androgen Receptor [2] = molecular target: T2, Androgen Receptor (Homo sapiens, UniProt P10275+P40337, T878A); assay: Androgen Receptor ELISA assay (PathScan AR ELISA) in LNCaP cells: AR degradation, Dmax and DC50; format: cell-based; details: for DC50: concentration that caused 50% Androgen Receptor degradation
T2 construct: Compounds have been evaluated in this assay in LNCaP and/or VCaP cells utilizing similar protocols; endogenous in cells; host or cells: LNCaP cells
T2 sequence (P10275 whole entry T878A): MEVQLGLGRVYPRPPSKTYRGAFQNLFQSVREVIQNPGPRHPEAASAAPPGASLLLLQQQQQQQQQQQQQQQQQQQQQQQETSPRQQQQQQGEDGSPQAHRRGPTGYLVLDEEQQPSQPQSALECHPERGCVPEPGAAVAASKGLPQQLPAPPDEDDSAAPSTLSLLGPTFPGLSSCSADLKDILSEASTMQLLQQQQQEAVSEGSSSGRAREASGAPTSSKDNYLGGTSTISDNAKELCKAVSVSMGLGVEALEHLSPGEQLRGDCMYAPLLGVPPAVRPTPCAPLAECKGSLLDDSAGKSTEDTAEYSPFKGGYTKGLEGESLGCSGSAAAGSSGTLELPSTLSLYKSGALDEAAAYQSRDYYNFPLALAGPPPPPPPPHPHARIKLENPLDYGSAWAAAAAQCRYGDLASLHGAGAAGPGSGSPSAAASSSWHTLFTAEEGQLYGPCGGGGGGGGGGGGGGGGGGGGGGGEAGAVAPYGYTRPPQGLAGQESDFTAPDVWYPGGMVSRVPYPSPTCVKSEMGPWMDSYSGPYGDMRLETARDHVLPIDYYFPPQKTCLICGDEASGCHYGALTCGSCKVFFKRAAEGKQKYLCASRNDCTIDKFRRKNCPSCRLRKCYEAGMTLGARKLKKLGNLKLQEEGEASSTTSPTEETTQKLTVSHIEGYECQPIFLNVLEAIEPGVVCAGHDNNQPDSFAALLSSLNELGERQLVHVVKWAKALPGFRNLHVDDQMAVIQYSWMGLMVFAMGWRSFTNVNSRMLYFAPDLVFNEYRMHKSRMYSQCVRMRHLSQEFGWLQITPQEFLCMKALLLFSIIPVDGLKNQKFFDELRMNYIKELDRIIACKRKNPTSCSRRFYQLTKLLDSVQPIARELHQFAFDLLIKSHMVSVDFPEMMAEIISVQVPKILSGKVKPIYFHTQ
T2 sequence (P40337 whole entry): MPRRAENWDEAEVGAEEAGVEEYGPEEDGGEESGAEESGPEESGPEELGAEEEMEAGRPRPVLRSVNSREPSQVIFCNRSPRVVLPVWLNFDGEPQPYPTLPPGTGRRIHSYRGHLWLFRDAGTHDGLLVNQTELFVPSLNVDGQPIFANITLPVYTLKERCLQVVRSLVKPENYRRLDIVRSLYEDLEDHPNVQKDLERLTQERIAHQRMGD
T2 sequence (Q15369 whole entry partner): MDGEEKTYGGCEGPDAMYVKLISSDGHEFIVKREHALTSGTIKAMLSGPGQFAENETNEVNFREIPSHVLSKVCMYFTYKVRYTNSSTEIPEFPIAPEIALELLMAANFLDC
T2 sequence (Q15370 whole entry partner): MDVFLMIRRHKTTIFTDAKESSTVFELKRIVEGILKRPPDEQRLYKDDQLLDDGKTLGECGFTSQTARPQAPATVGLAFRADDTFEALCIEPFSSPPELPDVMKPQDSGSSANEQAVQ

[3] = highest percentage of Androgen Receptor degradation observed
[4] = read-out: VCaP DC50; concentration that caused 50% Androgen Receptor degradation, VCaP cells
[5] = highest percentage of Androgen Receptor degradation

| SMILES | Dmax (Androgen Receptor [1]; VCaP, read-out: VCaP Dmax (%)) | DC50 (Androgen Receptor [1]; concentration that caused 50% Androgen Receptor degradation, VCaP cells; read-out: VCaP DC50) | Dmax (Androgen Receptor [2]; [3]) | DC50 (Androgen Receptor [1]; [4]) | DC50 (Androgen Receptor [2]) | Dmax (Androgen Receptor [2]; [5]) |
| --- | --- | --- | --- | --- | --- | --- |
| Cc1ncsc1-c1ccc(CNC(=O)[C@@H]2C[C@@H](O)CN2C(=O)[C@@H](NC(=O)COCCCOCCCCCOc2ccc(N3C(=S)N(c4cnc(C#N)c(C(F)(F)F)c4)C(=O)C3(C)C)cc2)C(C)(C)C)cc1 [Example 2, (2S,4R)-1-((S)-2-(2-(3-(5-(4-(3-(6-cyano-5-(trifluoromethyl)pyridin-3-yl)-5,5-dimethyl-4-oxo-2-thioxoimidazolidin-1-yl)phenoxy)pentyloxy)propoxy)acetamido)-3,3-dimethylbutanoyl)-4-hydroxy-N-(4-(4-methylthiazol-5-yl)benzyl)pyrrolidine-2-carboxamide] | 51 to 70% | < 50 nM | > 71% | – | – | – |
| Cc1ncsc1-c1ccc([C@H](C)NC(=O)[C@@H]2C[C@@H](O)CN2C(=O)[C@@H](NC(=O)COCCCOCCCCCOc2ccc(N3C(=S)N(c4ccc(C#N)c(C(F)(F)F)c4)C(=O)C3(C)C)cc2)C(C)(C)C)cc1 [Example 4, (2S,4R)-1-[(2S)-2-[2-(3-{[5-(4-{3-[4-cyano-3-(trifluoromethyl)phenyl]-5,5-dimethyl-4-oxo-2-sulfanylideneimidazolidin-1-yl}phenoxy)pentyl]oxy}propoxy)acetamido]-3,3-dimethylbutanoyl]-4-hydroxy-N-[(1S)-1-[4-(4-methyl-1,3-thiazol-5-yl)phenyl]ethyl]pyrrolidine-2-carboxamide] | 51 to 70% | – | > 71% | < 50 nM | < 50 nM | – |
| Cc1ncsc1-c1ccc(CNC(=O)[C@@H]2C[C@@H](O)CN2C(=O)[C@@H](NC(=O)COCCCOCCCCCOc2ccc(N3C(=S)N(c4ccc(C#N)c(Cl)c4)C(=O)C3(C)C)cc2)C(C)(C)C)cc1 [Example 8] | 51 to 70% | – | > 71% | < 50 nM | < 50 nM | – |
| Cc1ncsc1-c1ccc([C@H](C)NC(=O)[C@@H]2C[C@@H](O)CN2C(=O)[C@@H](NC(=O)COCCCOCCCCCOc2ccc(N3C(=S)N(c4ccc(C#N)c(C(F)(F)F)c4)C(=O)C3(C)C)cc2F)C(C)(C)C)cc1 [Example 10, (2S,4R)-1-[(2S)-2-[2-(3-{[5-(4-{3-[4-cyano-3-(trifluoromethyl)phenyl]-5,5-dimethyl-4-oxo-2-sulfanylideneimidazolidin-1-yl}-2-fluorophenoxy)pentyl]oxy}propoxy)acetamido]-3,3-dimethylbutanoyl]-4-hydroxy-N-[(1S)-1-[4-(4-methyl-1,3-thiazol-5-yl)phenyl]ethyl]pyrrolidine-2-carboxamide] | 51 to 70% | – | > 71% | < 50 nM | < 50 nM | – |
| Cc1ncsc1-c1ccc([C@H](C)NC(=O)[C@@H]2C[C@@H](O)CN2C(=O)[C@@H](NC(=O)COCCCOCCCCCOc2c(F)cc(N3C(=S)N(c4ccc(C#N)c(C(F)(F)F)c4)C(=O)C3(C)C)cc2F)C(C)(C)C)cc1 [Example 11, (2S,4R)-1-[(2S)-2-[2-(3-{[5-(4-{3-[4-cyano-3-(trifluoromethyl)phenyl]-5,5-dimethyl-4-oxo-2-sulfanylideneimidazolidin-1-yl}-2,6-difluorophenoxy)pentyl]oxy}propoxy)acetamido]-3,3-dimethylbutanoyl]-4-hydroxy-N-[(1S)-1-[4-(4-methyl-1,3-thiazol-5-yl)phenyl]ethyl]pyrrolidine-2-carboxamide] | 51 to 70% | – | > 71% | < 50 nM | < 50 nM | – |
| Cc1ncsc1-c1ccc(CNC(=O)[C@@H]2C[C@@H](O)CN2C(=O)[C@@H](NC(=O)COCCCOCCC(C)(C)CCOc2ccc(N3C(=S)N(c4ccc(C#N)c(C(F)(F)F)c4)C(=O)C3(C)C)cc2)C(C)(C)C)cc1 [Example 12, (2S,4R)-1-[(2S)-2-[2-(3-{[5-(4-{3-[4-cyano-3-(trifluoromethyl)phenyl]-5,5-dimethyl-4-oxo-2-sulfanylideneimidazolidin-1-yl}phenoxy)-3,3-dimethylpentyl]oxy}propoxy)acetamido]-3,3-dimethylbutanoyl]-4-hydroxy-N-{[4-(4-methyl-1,3-thiazol-5-yl)phenyl]methyl}pyrrolidine-2-carboxamide] | 26 to 50% | – | > 71% | < 50 nM | 51 to 500 nM | – |
| Cc1ncsc1-c1ccc(CNC(=O)[C@@H]2C[C@@H](O)CN2C(=O)[C@H](C(C)C)N2Cc3ccccc3C2=O)c(OCCCCOCCCOc2ccc(N3C(=S)N(c4ccc(C#N)c(C(F)(F)F)c4)C(=O)C3(C)C)cc2)c1 [Example 279] | – | – | – | – | > 501 nM | 51 to 70% |
| CC[C@H](NC(C)=O)C(=O)N1C[C@H](O)C[C@H]1C(=O)NCc1ccc(-c2scnc2C)cc1OCCOCCOCCOc1ccc(N2C(=S)N(c3ccc(C#N)c(C(F)(F)F)c3)C(=O)C2(C)C)cc1 [Example 280] | – | – | – | – | > 501 nM | 26 to 50% |
| CC(=O)N[C@H](C(=O)N1C[C@H](O)C[C@H]1C(=O)NCc1ccc(-c2scnc2C)cc1OCCOCCOCCOc1ccc(N2C(=S)N(c3ccc(C#N)c(C(F)(F)F)c3)C(=O)C2(C)C)cc1)C(C)C [Example 281] | – | – | – | – | > 501 nM | 51 to 70% |
| Cc1ncsc1-c1ccc(CNC(=O)[C@@H]2C[C@@H](O)CN2C(=O)[C@@H](NC(=O)c2ccccc2OCCOCCOc2ccc(N3C(=S)N(c4ccc(C#N)c(C(F)(F)F)c4)C(=O)C3(C)C)cc2)C(C)(C)C)cc1 [Example 282] | – | – | – | – | 51 to 500 nM | 51 to 70% |
| Cc1ncsc1-c1ccc(CNC(=O)[C@@H]2C[C@@H](O)CN2C(=O)[C@@H](NC(=O)c2cccc(OCCOCCOc3ccc(N4C(=S)N(c5ccc(C#N)c(C(F)(F)F)c5)C(=O)C4(C)C)cc3)c2)C(C)(C)C)cc1 [Example 283] | – | – | – | – | 51 to 500 nM | 51 to 70% |
| Cc1ncsc1-c1ccc(CNC(=O)[C@@H]2C[C@@H](O)CN2C(=O)[C@@H](NC(=O)c2ccc(OCCCOc3ccc(-c4ccc(N5C(=S)N(c6ccc(C#N)c(C(F)(F)F)c6)C(=O)C5(C)C)cc4)cc3)cc2)C(C)(C)C)cc1 [Example 284] | – | – | – | – | 51 to 500 nM | 26 to 50% |
| Cc1ncsc1-c1ccc(CNC(=O)[C@@H]2C[C@@H](O)CN2C(=O)[C@@H](NC(=O)c2ccc(OCCCCOc3ccc(-c4ccc(N5C(=S)N(c6ccc(C#N)c(C(F)(F)F)c6)C(=O)C5(C)C)cc4)cc3)cc2)C(C)(C)C)cc1 [Example 285] | – | – | – | – | > 501 nM | < 25% |
| Cc1ncsc1-c1ccc(CNC(=O)[C@@H]2C[C@@H](O)CN2C(=O)[C@@H](NC(=O)c2ccc(OCCOc3ccc(-c4ccc(N5C(=S)N(c6ccc(C#N)c(C(F)(F)F)c6)C(=O)C5(C)C)cc4)cc3)cc2)C(C)(C)C)cc1 [Example 286] | – | – | – | – | < 50 nM | 51 to 70% |
| Cc1ncsc1-c1ccc(CNC(=O)[C@@H]2C[C@@H](O)CN2C(=O)[C@@H](NC(=O)c2ccc(C3CCN(CCCCOc4ccc(N5C(=S)N(c6ccc(C#N)c(C(F)(F)F)c6)C(=O)C5(C)C)cc4)CC3)cc2)C(C)(C)C)cc1 [Example 287] | – | – | – | – | > 501 nM | 51 to 70% |
| Cc1ncsc1-c1ccc(CNC(=O)[C@@H]2C[C@@H](O)CN2C(=O)[C@@H](NC(=O)c2ccc(C3CCN(CCCOc4ccc(N5C(=S)N(c6ccc(C#N)c(C(F)(F)F)c6)C(=O)C5(C)C)cc4)CC3)cc2)C(C)(C)C)cc1 [Example 289] | – | – | – | – | > 501 nM | 26 to 50% |
| Cc1ncsc1-c1ccc(CNC(=O)[C@@H]2C[C@@H](O)CN2C(=O)[C@@H](NC(=O)COCCCOC2CCN(C(=O)c3ccc(N4C(=S)N(c5ccc(C#N)c(C(F)(F)F)c5)C(=O)C4(C)C)cc3)CC2)C(C)(C)C)cc1 [Example 290] | – | – | – | – | > 501 nM | 51 to 70% |
| Cc1ncsc1-c1ccc(CNC(=O)[C@@H]2C[C@@H](O)CN2C(=O)[C@@H](NC(=O)c2ccc(OCCOC3CCN(C(=O)c4ccc(N5C(=S)N(c6ccc(C#N)c(C(F)(F)F)c6)C(=O)C5(C)C)cc4)CC3)cc2)C(C)(C)C)cc1 [Example 291] | – | – | – | – | > 501 nM | < 25% |
| Cc1ncsc1-c1ccc(CNC(=O)[C@@H]2C[C@@H](O)CN2C(=O)[C@H](C(C)C)N2Cc3ccccc3C2=O)c(OCCO[C@@H]2CCC[C@@H]2OCCOc2ccc(N3C(=S)N(c4ccc(C#N)c(C(F)(F)F)c4)C(=O)C3(C)C)cc2)c1 [Example 304] | – | – | – | – | 51 to 500 nM | 26 to 50% |
| Cc1ncsc1-c1ccc(CNC(=O)[C@@H]2C[C@@H](O)CN2C(=O)[C@@H](NC(=O)CC(=O)CCCOCCCCCOc2ccc(N3C(=S)N(c4ccc(C#N)c(C(F)(F)F)c4)C(=O)C3(C)C)cc2)C(C)(C)C)cc1 [Example 305] | – | – | – | – | 51 to 500 nM | 51 to 70% |
